The record followed here is US12590108B2, “Boracic acid compound” (Phaeno Therapeutics Co., Ltd, priority 2020, dated 2026).

SMILES strings stand for the structures. Like-named read-outs stand apart in the source and are kept apart here.

The subject of assay [1] is Klebsiella pneumoniae ATCC BAA-2470 (NDM-1). Briefly: MIC shift, liquid microdilution, meropenem fixed at 4 μg/mL. The assay is classed as cell-based. The conditions noted are these: K. pneumoniae ATCC BAA-2470, NDM-1. The protocol:
(§1) The test compound was tested for minimum inhibitory concentration against three strains of Klebsiella pneumoniae ATCC BAA-1705 (KPC-2), ATCC BAA-2470 (NDM-1), and ARLG-1196 (CTM-1 group, SHV, NDM, TEM), and one strain of Escherichia coli ARLG-2829 (NDM-5, OXA-1). According to the requirements of the Institute of Clinical And Laboratory Standard (CLSI), the minimum inhibitory concentration (MIC) of each drug combination was determined by liquid microdilution method under the premise of fixing the concentration of meropenem at 4 μg/mL.
(§2) Preparation of compound mother plate: On the day of the experiment, the compound to be tested (the final concentration was 0.3125 to 20 μg/mL) and meropenem (the final concentration ranged from 1 to 64 μg/mL) were dissolved in a corresponding solvent (sterile ddH2O or DMSO) to form 100× mother liquors with the highest test concentration, and the compound to be tested and meropenem were then subjected to 2-fold series gradient dilution in a V-bottom 96-well plate to obtain 100× working solutions with the final concentration.
(§3) Preparation of inoculation solution: Fresh bacterial clones were picked from an overnight Mueller Hinton II Agar medium (MHA, Cat. No. 211438, BD BBLTM) plate, suspended in sterilized physiological saline, and adjusted to a concentration of 1×10^8 CFU/mL, and the suspension was further diluted to 5-10^5 CFU/mL with Cation-Adjusted Mueller Hinton II Broth (MHB, Catalog #212332, BD BBLTM).
(§4) Detection of minimum inhibitory concentration (MIC): 1 μL of the compound to be tested and the meropenem working solution were transferred to the corresponding wells to be tested in a round-bottomed 96-well plate (Catalog #3788, Corning), and 98 μL of the inoculation solution was added to the round-bottomed 96-well plate containing drugs, which was an MIC test plate; and after the plate was inverted and cultured at 37° C. for 20-24 h, the MIC value was read, and the minimum inhibitory concentration for inhibiting bacterial growth was defined as MIC.
For orientation: Broth dilution looks for growth in wells or tubes with falling amounts of substance.

For assay [2], the system named is Klebsiella pneumoniae ARLG-1196 (CTM-1 group, SHV, NDM, TEM). The description is as above. It counts as cell-based. The protocol: as §1, §2, §3, §4
Assay [3] has as its system Escherichia coli ARLG-2829 (NDM-5, OXA-1). The description is as above. The assay is classed as cell-based. As for the experimental part: as §1, §2, §3, §4
In assay [4] the test system is Klebsiella pneumoniae ATCC BAA-1705 (KPC-2). The assay is described as above. It counts as cell-based. The settings on record: K. pneumoniae ATCC BAA-1705, KPC-2. As for the experimental part: as §1, §2, §3, §4
Assay [5] deals with Klebsiella pneumoniae ATCC BAA-1705. Briefly: Mouse thigh muscle infection model, bacterial load. It counts as in vivo, CD-1 female mice. The settings on record: endpoint 12 h. As for the experimental part: 36 CD-1 female mice were divided into 12 cages with 3 […] in each cage. The day of infection was denoted as day 0.
Immunosuppressant cyclophosphamide at 150 mg/kg was injected intraperitoneally on day −4 and immunosuppressant cyclophosphamide at 100 mg/kg was injected intraperitoneally on day −1 to induce immunodeficient mice.
On day −1, the strain Klebsiella pneumoniae ATCC BAA-1705 was resuscitated on an MHA plate. Resuscitated colonies were picked and dissolved in sterile physiological saline to prepare a bacterial solution with a concentration of 5.6E+07 CFU/mL for thigh muscle infection in mice. The initial time of infection was denoted as 0 h, and 100 μL of the bacterial solution was injected into each mouse at the thigh muscle at 0 h, that is, the inoculation amount was 5.6E+06 CFU/mouse. 2 h after infection, dosing was performed according to the experimental scheme. The specific experimental scheme was as follows (see Table 4): • (1) 2 h after infection: for the 1st cage of mice, at the endpoint, thigh muscle tissue was taken and placed in 10 mL of sterile physiological saline, the tissue was homogenized by a homogenizer, and the homogenate was diluted in a gradient and spotted in a plate, with two replicates for each mouse. • (2) 2 h after infection: the 2nd to 12th cages were respectively treated at 10 mL/kg by volume according to the body weight of the mice, the 2nd cage of mice were given a vehicle by intravenous injection every 2 h, and the endpoint was 12 h; the 3rd cage of mice were given 100 mg/kg of meropenem by intravenous injection every 2 h, and the endpoint was 12 h; the 4th cage of mice were given 100 mg/kg of meropenem and 20 mg/kg of QPX7728 by intravenous injection every 2 h, and the endpoint was 12 h; the 5th cage of mice were given 100 mg/kg of meropenem and 100 mg/kg of compound 15 by intravenous injection every 2 h, and the endpoint was 12 h; the 6th cage of mice were given 100 mg/kg of meropenem and 20 mg/kg of compound 15 by intravenous injection every 2 h, and the endpoint was 12 h; the 7th cage of mice were given 100 mg/kg of meropenem and 4 mg/kg of compound 15 by intravenous injection every 2 h, and the endpoint was 12 h; the 8th cage of mice were given 100 mg/kg of cefepime by intravenous injection every 2 h, and the endpoint was 12 h; the 9th cage of mice were given 100 mg/kg of cefepime and 20 mg/kg of QPX7728 by intravenous injection every 2 h, and the endpoint was 12 h; the 10th cage of mice were given 100 mg/kg of cefepime and 100 mg/kg of compound 15 by intravenous injection every 2 h, and the endpoint was 12 h; the 11th cage of mice were given 100 mg/kg of cefepime and 20 mg/kg of compound 15 by intravenous injection every 2 h, and the endpoint was 12 h; and the 12th cage of mice were given 100 mg/kg of cefepime and 4 mg/kg of compound 15 by intravenous injection every 2 h, and the endpoint was 12 h. At the endpoint of 12 h, thigh muscle tissue was taken and placed in 10 mL of sterile physiological saline, the tissue was homogenized by a homogenizer, and the homogenate was diluted in a gradient and spotted in a plate, with two replicates for each mouse. The bacterial load in the thigh muscle tissue of the mice was counted, and the experiment was summarized as follows (see Table 5): […]

Where [6] appears, read: compound + meropenem fixed at 4 μg/mL.

Broadly, the MIC is the smallest concentration in the dilution series that meets the test's criterion for growth inhibition. For `CCOc1ccc2c(c1C(=O)O)O[B-](O)(O)CO2` [Compound 15], the minimal inhibitory concentration (MIC) in assay [1] (setting [6]) was 0.625 µg/mL; in assay [2] (compound + meropenem fixed at 4 μg/mL, K. pneumoniae ARLG-1196, CTM-1 and isoforms thereof, SHV, NDM, TEM) it was 0.625 µg/mL; in assay [3] (compound + meropenem fixed at 4 μg/mL, E. coli ARLG-2829 (urine clinical isolate), NDM-5, OXA-1), 1.25 µg/mL; in assay [4] (setting [6]), at most 0.3125 µg/mL. In addition, the “Average CFU in mice (thigh muscle tissue)” value in assay [5] (cefepime 100 mg/kg + inhibitor 4 mg/kg i.v. q2h) amounted to 5.68E+06 CFU/mouse; in assay [5] (cefepime 100 mg/kg + inhibitor 20 mg/kg i.v. q2h), 2.06E+06 CFU/mouse; in assay [5] (cefepime 100 mg/kg + inhibitor 100 mg/kg i.v. q2h) it was 1.24E+06 CFU/mouse; in assay [5] (meropenem 100 mg/kg + inhibitor 4 mg/kg i.v. q2h), 1.65E+07 CFU/mouse; in assay [5] (meropenem 100 mg/kg + inhibitor 20 mg/kg i.v. q2h), 4.08E+06 CFU/mouse; in assay [5] (meropenem 100 mg/kg + inhibitor 100 mg/kg i.v. q2h), 2.02E+06 CFU/mouse.
Consider `C[C@@H](O)[C@H]1C(=O)N2C(C(=O)O)=C(S[C@@H]3CN[C@H](C(=O)N(C)C)C3)[C@H](C)[C@H]12` [Meropenem, meropenem, reference compound], for which the minimum inhibitory concentration (MIC) was 64 µg/mL in assay [1] (Klebsiella pneumoniae, ATCCBAA2470, meropenem alone, read-out: MIC); 64 µg/mL in assay [2] (Klebsiella pneumoniae, meropenem alone, K. pneumoniae ARLG-1196, read-out: MIC); over 64 µg/mL in assay [3] (Escherichia coli, meropenem alone, E. coli ARLG-2829, read-out: MIC); 32 µg/mL in assay [4] (Klebsiella pneumoniae, ATCCBAA1705, meropenem alone, read-out: MIC). The “Average CFU in mice (thigh muscle tissue)” value in assay [5] (antibiotic alone 100 mg/kg i.v. q2h) came to 4.83E+08 CFU/mouse.
